Laboratory results from ChEMBL document CHEMBL5532723, “Advances in Targeted Therapies for Inflammatory Diseases and Cancer: Exploring Cellular Mechanisms and Therapeutic Strategies” (ACS Med Chem Lett, 2024).

Legend:
[1] = target: T1, Protein cereblon/Interleukin-1 receptor-associated kinase 4 (Homo sapiens, UniProt Q9NWZ3+Q96SW2); test: PROTAC activity at CRBN/IRAK4 in human KARPAS-299 cells assessed as induction of IRAK4 degradation incubated for 24 hrs by TR-FRET assay; assay type: cell-based
Target sequence in this assay (Q9NWZ3 whole entry): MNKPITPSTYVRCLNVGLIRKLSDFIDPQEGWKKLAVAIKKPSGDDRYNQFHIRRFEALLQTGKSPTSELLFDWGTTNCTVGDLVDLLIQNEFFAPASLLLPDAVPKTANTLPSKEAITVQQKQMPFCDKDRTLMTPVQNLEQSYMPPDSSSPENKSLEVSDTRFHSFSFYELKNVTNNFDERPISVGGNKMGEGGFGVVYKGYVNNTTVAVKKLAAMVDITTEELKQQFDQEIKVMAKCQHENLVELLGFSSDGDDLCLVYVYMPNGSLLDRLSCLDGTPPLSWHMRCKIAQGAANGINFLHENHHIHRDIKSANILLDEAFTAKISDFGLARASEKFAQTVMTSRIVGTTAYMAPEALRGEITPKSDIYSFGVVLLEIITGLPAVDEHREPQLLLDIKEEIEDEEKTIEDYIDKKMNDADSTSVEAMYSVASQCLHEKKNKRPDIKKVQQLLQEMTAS
Target sequence in this assay (Q96SW2 whole entry): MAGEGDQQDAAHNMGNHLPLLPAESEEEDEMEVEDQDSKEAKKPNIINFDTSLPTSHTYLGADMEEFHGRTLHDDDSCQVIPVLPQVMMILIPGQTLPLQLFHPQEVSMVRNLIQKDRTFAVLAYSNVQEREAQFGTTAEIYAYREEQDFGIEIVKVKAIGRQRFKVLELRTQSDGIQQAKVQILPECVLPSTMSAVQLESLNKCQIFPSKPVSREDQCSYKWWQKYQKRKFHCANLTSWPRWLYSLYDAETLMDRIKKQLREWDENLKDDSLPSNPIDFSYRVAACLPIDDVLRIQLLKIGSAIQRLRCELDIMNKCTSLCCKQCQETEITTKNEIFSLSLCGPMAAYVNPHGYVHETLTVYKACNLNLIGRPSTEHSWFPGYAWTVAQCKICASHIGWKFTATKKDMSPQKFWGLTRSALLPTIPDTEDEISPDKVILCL

[2] = target: T1, Protein cereblon/Interleukin-1 receptor-associated kinase 4; test: PROTAC activity at CRBN/IRAK4 in human KARPAS-299 cells assessed as induction of IRAK4 degradation incubated for 24 hrs by TR-FRET assay relative to control; assay type: cell-based
Target sequence in this assay (Q96SW2 whole entry, looked up): as the sequence (Q96SW2 whole entry) above
Target sequence in this assay (Q9NWZ3 whole entry, looked up): as the sequence (Q9NWZ3 whole entry) above

DC50 [1] [nM] | Emax [2] [%] | SMILES
3.7 | 99 | CC(C)(O)c1cc2nn([C@H]3CC[C@H](N4CCN(CCc5cc(F)c([C@H]6CCC(=O)NC6=O)c(F)c5)CC4)CC3)cc2cc1NC(=O)c1ccc2cc(C#N)cnn12
8.3 | 100 | CC(C)(O)c1cc2nn([C@H]3CC[C@H](N4CCN(C5CN(c6cc(F)c([C@H]7CCC(=O)NC7=O)c(F)c6)C5)CC4)CC3)cc2cc1NC(=O)c1ccc2cc(C#N)cnn12
11 | 99 | CC(C)(O)c1cc2nn([C@H]3C[C@H](N4CCN(C(=O)C5CN(c6cc(F)c([C@H]7CCC(=O)NC7=O)c(F)c6)C5)CC4)C3)cc2cc1NC(=O)c1ccc2cc(C#N)cnn12
3.9 | 101 | CC(C)(O)c1cc2nn(C34CCC(N5CCN(CCc6cc(F)c([C@H]7CCC(=O)NC7=O)c(F)c6)CC5)(CC3)CC4)cc2cc1NC(=O)c1ccc2cc(C#N)cnn12
7.1 | 100 | CC(C)(O)c1cc2nn([C@H]3CC[C@H](N4CCN(CCNc5cc(F)c(C6CCC(=O)NC6=O)c(F)c5)CC4)CC3)cc2cc1NC(=O)c1ccc2cc(C#N)cnn12 (some centres not stated)
5.2 | 94 | CC(C)(O)c1cc2nn(C34CC(N5CCN(CCc6cc(F)c([C@H]7CCC(=O)NC7=O)c(F)c6)CC5)(C3)C4)cc2cc1NC(=O)c1ccc2cc(C#N)cnn12
